In patent US6737383B1, “Herbicidal oxadiazolidines” (priority 1999, dated 2004):

Tests used:
blackgrass = experiment: Test B pre/postemergence blackgrass; format: in vivo, Alopecurus myosuroides
In short: (§1)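 Response is a visual 0-to-10 score relative to untreated plants, where 0 means no effect and 10 means complete control, taken twelve to sixteen days after application. Treatments went onto soil at planting and onto foliage of 1- to 4-leaf plants, using a surfactant-containing non-phytotoxic solvent.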

surinam grass = experiment: Test B pre/postemergence surinam grass; format: in vivo, Brachiaria decumbens
In short: as §1

cocklebur = experiment: Test B pre/postemergence cocklebur; format: in vivo, Xanthium strumarium
In short: as §1

corn = experiment: Test B pre/postemergence corn; format: in vivo, Zea mays
In short: as §1

crabgrass = experiment: Test B pre/postemergence crabgrass; format: in vivo, Digitaria sanguinalis
In short: as §1

giant foxtail = experiment: Test B pre/postemergence giant foxtail; format: in vivo, Setaria faberii
In short: as §1

morningglory = experiment: Test B pre/postemergence morningglory; format: in vivo, Ipomoea hederacea
In short: as §1

pigweed = experiment: Test B pre/postemergence pigweed; format: in vivo, Amaranthus retroflexus
In short: as §1

rape = experiment: Test B pre/postemergence rape; format: in vivo, Brassica napus
In short: as §1

soybean = experiment: Test B pre/postemergence soybean; format: in vivo, Glycine max
In short: as §1

sugar beet = experiment: Test B pre/postemergence sugar beet; format: in vivo, Beta vulgaris
In short: as §1

velvetleaf = experiment: Test B pre/postemergence velvetleaf; format: in vivo, Abutilon theophrasti
In short: as §1

wheat = experiment: Test B pre/postemergence wheat; format: in vivo, Triticum aestivum
In short: as §1

wild oat = experiment: Test B pre/postemergence wild oat; format: in vivo, Avena fatua
In short: as §1

purple nutsedge = experiment: Test B pre/postemergence purple nutsedge; format: in vivo, Cyperus rotundus
In short: as §1

rice = experiment: Test B flood test rice; format: in vivo, Oryza sativa
In short: (§2)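 Flood test on plants grown to the 2-leaf stage; treated plants kept in greenhouse twelve to sixteen days, then visually rated against controls on a 0 (no effect) to 10 (complete control) scale.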

smallflower flatsedge = experiment: Test B flood test smallflower flatsedge; format: in vivo, Cyperus difformis
In short: as §2

duck salad = experiment: Test B flood test duck salad; format: in vivo, Heteranthera limosa
In short: as §2

bamyardgrass = experiment: Test B flood test barnyardgrass; format: in vivo, Echinochloa crus-galli
In short: as §2

[1] = Postemergence, Rate 62 g/ha, scale 0 to 10, 0 is no effect, 10 is complete control
[2] = Postemergence, Rate 125 g/ha, scale of 0 to 10 where 0 is no effect and 10 is complete control
[3] = Postemergence, Rate 250 g/ha, scale of 0 to 10, 0 is no effect, 10 is complete control
[4] = Preemergence, Rate 62 g/ha, scale of 0 to 10 where 0 is no effect and 10 is complete control
[5] = Preemergence, Rate 125 g/ha, scale of 0 to 10 where 0 is no effect and 10 is complete control
[6] = Preemergence, Rate 250 g/ha, scale 0 to 10 (0 no effect, 10 complete control)
[7] = Preemergence, Rate 500 g/ha, scale of 0 to 10 where 0 is no effect and 10 is complete control
[8] = Rate 500 g/ha, Postemergence, scale 0 to 10, 0 is no effect, 10 is complete control
[9] = Rate 62 g/ha, flood test species, Pre-emergence, visual evaluation after twelve to sixteen days
[10] = Rate 125 g/ha, under heading Pre-emergence, flood test species, visual evaluation after twelve to sixteen days
[11] = Rate 250 g/ha, Pre-emergence (flood test species), scale 0 to 10, 0 is no effect, 10 is complete control
[12] = Rate 500 g/ha, Pre-emergence section of Table B, 0 to 10 scale (0 no effect, 10 complete control)

Structure (SMILES): C#CC(C)n1c(=O)on(C(=O)N(c2ccc(F)cc2F)C(C)C)c1=O (racemic) [Compound 657]
- Plant response rating, Blackgrass (blackgrass; [1]): 6
- Blackgrass plant response rating (blackgrass; [2]): 8
- Blackgrass plant response rating (blackgrass; [3]): 8
- Blackgrass plant response rating (blackgrass; [4]): 5
- Blackgrass plant response rating (blackgrass; [5]): 9
- Plant response rating, Blackgrass (blackgrass; [6]): 7
- Plant response rating, Blackgrass (blackgrass; [7]): 9
- Blackgrass plant response rating (blackgrass; [8]): 8
- Plant response rating, B. signalgrass (surinam grass; [1]): 0
- Plant response rating, B. signalgrass (surinam grass; [2]): 2
- B. signalgrass plant response rating (surinam grass; [3]): 4
- B. signalgrass plant response rating (surinam grass; [4]): 2
- B. signalgrass plant response rating (surinam grass; [5]): 8
- Plant response rating, B. signalgrass (surinam grass; [6]): 9
- Plant response rating, B. signalgrass (surinam grass; [7]): 10
- B. signalgrass plant response rating (surinam grass; [8]): 6
- Plant response rating, Cocklebur (cocklebur; [1]): 0
- Cocklebur plant response rating (cocklebur; [2]): 2
- Cocklebur plant response rating (cocklebur; [3]): 4
- Cocklebur plant response rating (cocklebur; [4]): 0
- Cocklebur plant response rating (cocklebur; [5]): 0
- Plant response rating, Cocklebur (cocklebur; [6]): 2
- Plant response rating, Cocklebur (cocklebur; [7]): 2
- Cocklebur plant response rating (cocklebur; [8]): 5
- Plant response rating, Corn (corn; [1]): 1
- Corn plant response rating (corn; [2]): 1
- Corn plant response rating (corn; [3]): 1
- Corn plant response rating (corn; [4]): 0
- Corn plant response rating (corn; [5]): 1
- Plant response rating, Corn (corn; [7]): 8
- Corn plant response rating (corn; [8]): 1
- Plant response rating, Crabgrass (crabgrass; [1]): 3
- Crabgrass plant response rating (crabgrass; [2]): 8
- Crabgrass plant response rating (crabgrass; [3]): 9
- Crabgrass plant response rating (crabgrass; [4]): 3
- Crabgrass plant response rating (crabgrass; [5]): 10
- Plant response rating, Crabgrass (crabgrass; [6]): 9
- Plant response rating, Crabgrass (crabgrass; [7]): 9
- Crabgrass plant response rating (crabgrass; [8]): 9
- Plant response rating, Giant foxtail (giant foxtail; [1]): 5
- Giant foxtail plant response rating (giant foxtail; [2]): 8
- Giant foxtail plant response rating (giant foxtail; [3]): 7
- Giant foxtail plant response rating (giant foxtail; [4]): 10
- Giant foxtail plant response rating (giant foxtail; [5]): 10
- Plant response rating, Giant foxtail (giant foxtail; [6]): 9
- Plant response rating, Giant foxtail (giant foxtail; [7]): 9
- Giant foxtail plant response rating (giant foxtail; [8]): 8
- Plant response rating, Morningglory (morningglory; [1]): 2
- Morningglory plant response rating (morningglory; [2]): 5
- Morningglory plant response rating (morningglory; [3]): 5
- Morningglory plant response rating (morningglory; [4]): 1
- Morningglory plant response rating (morningglory; [5]): 1
- Plant response rating, Morningglory (morningglory; [6]): 4
- Plant response rating, Morningglory (morningglory; [7]): 6
- Morningglory plant response rating (morningglory; [8]): 9
- Plant response rating, Redroot pigweed (pigweed; [1]): 0
- Redroot pigweed plant response rating (pigweed; [2]): 2
- Redroot pigweed plant response rating (pigweed; [4]): 7
- Redroot pigweed plant response rating (pigweed; [5]): 10
- Plant response rating, Redroot pigweed (pigweed; [6]): 10
- Plant response rating, Redroot pigweed (pigweed; [7]): 10
- Redroot pigweed plant response rating (pigweed; [8]): 7
- Plant response rating, Rape (rape; [1]): 0
- Rape plant response rating (rape; [2]): 2
- Rape plant response rating (rape; [4]): 3
- Rape plant response rating (rape; [5]): 3
- Plant response rating, Rape (rape; [6]): 10
- Plant response rating, Rape (rape; [7]): 10
- Rape plant response rating (rape; [8]): 3
- Plant response rating, Soybean (soybean; [1]): 1
- Soybean plant response rating (soybean; [2]): 1
- Soybean plant response rating (soybean; [4]): 0
- Soybean plant response rating (soybean; [5]): 0
- Plant response rating, Soybean (soybean; [7]): 3
- Plant response rating, Sugarbeets (sugar beet; [1]): 0
- Sugarbeets plant response rating (sugar beet; [2]): 0
- Sugarbeets plant response rating (sugar beet; [4]): 7
- Sugarbeets plant response rating (sugar beet; [5]): 7
- Plant response rating, Sugarbeets (sugar beet; [6]): 10
- Plant response rating, Sugarbeets (sugar beet; [7]): 9
- Sugarbeets plant response rating (sugar beet; [8]): 3
- Plant response rating, Velvetleaf (velvetleaf; [1]): 2
- Velvetleaf plant response rating (velvetleaf; [2]): 3
- Velvetleaf plant response rating (velvetleaf; [4]): 3
- Velvetleaf plant response rating (velvetleaf; [5]): 4
- Plant response rating, Velvetleaf (velvetleaf; [6]): 8
- Plant response rating, Velvetleaf (velvetleaf; [7]): 10
- Velvetleaf plant response rating (velvetleaf; [8]): 4
- Plant response rating, Wheat (wheat; [1]): 0
- Wheat plant response rating (wheat; [2]): 0
- Wheat plant response rating (wheat; [4]): 0
- Wheat plant response rating (wheat; [5]): 0
- Plant response rating, Wheat (wheat; [6]): 0
- Plant response rating, Wheat (wheat; [7]): 7
- Wheat plant response rating (wheat; [8]): 5
- Plant response rating, Wild oats (wild oat; [1]): 1
- Wild oats plant response rating (wild oat; [2]): 2
- Wild oats plant response rating (wild oat; [4]): 3
- Wild oats plant response rating (wild oat; [5]): 6
- Plant response rating, Wild oats (wild oat; [6]): 8
- Plant response rating, Wild oats (wild oat; [7]): 8
- Wild oats plant response rating (wild oat; [8]): 2
- Nutsedge plant response rating (purple nutsedge; [2]): 3
- Nutsedge plant response rating (purple nutsedge; [4]): 0
- Nutsedge plant response rating (purple nutsedge; [5]): 0
- Plant response rating, Nutsedge (purple nutsedge; [6]): 5
- Plant response rating, Nutsedge (purple nutsedge; [7]): 6
- Plant response rating, Rice (0 to 10 scale, 0 is no effect, 10 is complete control) (rice; [9]): 0
- Rice plant response rating (0 to 10 scale, 0 is no effect, 10 is complete control) (rice; [10]): 0
- Rice plant response rating (rice; [11]): 0
- Rice plant response rating (rice; [12]): 0
- Plant response rating, S. Flatsedge (0 to 10 scale, 0 is no effect, 10 is complete control) (smallflower flatsedge; [9]): 0
- S. Flatsedge plant response rating (0 to 10 scale, 0 is no effect, 10 is complete control) (smallflower flatsedge; [10]): 0
- S. Flatsedge plant response rating (smallflower flatsedge; [11]): 0
- S. Flatsedge plant response rating (smallflower flatsedge; [12]): 0
- Plant response rating, Ducksalad (0 to 10 scale, 0 is no effect, 10 is complete control) (duck salad; [9]): 0
- Ducksalad plant response rating (0 to 10 scale, 0 is no effect, 10 is complete control) (duck salad; [10]): 0
- Ducksalad plant response rating (duck salad; [11]): 0
- Ducksalad plant response rating (duck salad; [12]): 0
- Plant response rating, Barnyardgrass (0 to 10 scale, 0 is no effect, 10 is complete control) (bamyardgrass; [9]): 0
- Barnyardgrass plant response rating (0 to 10 scale, 0 is no effect, 10 is complete control) (bamyardgrass; [10]): 0
- Barnyardgrass plant response rating (bamyardgrass; [11]): 0
- Barnyardgrass plant response rating (bamyardgrass; [12]): 0
